Measured values published in patent US12252524B2, “GIP/GLP1 co-agonist compounds” (Eli Lilly and Company, priority 2018, dated 2025).
Numbered stars: 1 amine (or outer) side, 2 acyl side, 3 side chain; on linkers, the order of the positions; unused ones are H or OH. Square brackets hold non-standard residues; d marks the D form. Side chains are listed from the residue outwards. Peptide text beside a SMILES is read from it. * marks the point of attachment. C20 diacid = O=C(O)CCCCCCCCCCCCCCCCCCC(=O)*; C18 diacid = O=C(O)CCCCCCCCCCCCCCCCC(=O)*; αMePhe(2-F) = C[C@](N)(Cc1ccccc1F)C(=O)O; γGlu = O=C(O)[C@H](CCC(=O)[*:2])N[*:1]; αMeL = CC(C)C[C@](C)(N)C(=O)O; AEEA = NCCOCCOCC(=O)O; Aib = CC(C)(N)C(=O)O

How the values were obtained:
[1] = biological target: human GLP-1 receptor (GLP-1R) (Homo sapiens, UniProt P43220); test: cAMP pharmacological functional assay in presence of casein, hGLP-1R; type: cell-based; conditions: HEK293 cells expressing hGLP-1R, 0.1% Casein, geometric mean; read-out: hGLP1R cAMP Rel EC50 nM (SEM, n)
[2] = biological target: T1, gastric inhibitory peptide receptor (GIPR) (Homo sapiens, UniProt P48546); test: cAMP pharmacological functional assay in presence of casein, hGIPR; type: cell-based; conditions: HEK293 cells expressing hGIPR, 0.1% Casein, geometric mean; read-out: hGIPR cAMP Rel EC50 nM (SEM, n)
T1 sequence (P48546 22-466): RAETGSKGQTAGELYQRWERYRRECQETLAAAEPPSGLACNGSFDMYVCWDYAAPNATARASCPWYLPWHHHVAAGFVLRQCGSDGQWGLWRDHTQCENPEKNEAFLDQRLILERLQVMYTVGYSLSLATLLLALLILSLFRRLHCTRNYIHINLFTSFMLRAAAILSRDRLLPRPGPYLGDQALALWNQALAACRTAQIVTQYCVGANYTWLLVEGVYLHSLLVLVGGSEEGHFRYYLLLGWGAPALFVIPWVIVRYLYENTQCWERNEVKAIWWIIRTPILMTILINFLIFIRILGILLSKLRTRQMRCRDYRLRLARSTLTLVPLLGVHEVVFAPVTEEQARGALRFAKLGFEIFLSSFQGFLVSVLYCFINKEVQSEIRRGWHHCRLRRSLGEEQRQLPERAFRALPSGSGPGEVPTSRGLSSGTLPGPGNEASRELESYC

Sequence of human GLP-1 receptor (GLP-1R) (P43220 24-463): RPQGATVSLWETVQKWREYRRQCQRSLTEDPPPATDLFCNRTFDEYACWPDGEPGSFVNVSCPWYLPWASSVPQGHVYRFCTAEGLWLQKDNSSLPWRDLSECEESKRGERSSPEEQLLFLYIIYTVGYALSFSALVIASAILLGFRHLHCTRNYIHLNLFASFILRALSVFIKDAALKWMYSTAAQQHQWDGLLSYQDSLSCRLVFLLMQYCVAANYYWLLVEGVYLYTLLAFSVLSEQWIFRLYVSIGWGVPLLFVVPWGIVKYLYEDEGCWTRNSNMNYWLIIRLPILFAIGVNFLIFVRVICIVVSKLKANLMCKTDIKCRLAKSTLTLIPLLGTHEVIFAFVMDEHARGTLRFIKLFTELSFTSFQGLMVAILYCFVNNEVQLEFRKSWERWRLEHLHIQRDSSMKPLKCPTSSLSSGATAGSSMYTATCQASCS

SMILES	EC50 [1] [nM]	EC50 [2] [nM]
CC[C@H](C)[C@H](NC(=O)[C@H](CC(C)C)NC(=O)[C@H](Cc1ccc(O)cc1)NC(=O)[C@H](CCC(=O)O)NC(=O)[C@@H](NC(=O)[C@H](Cc1ccccc1)NC(=O)[C@H](C)NC(=O)[C@H](CCC(=O)O)NC(=O)[C@H](CCC(N)=O)NC(=O)[C@H](C)NC(=O)[C@H](CCCCNC(=O)COCCOCCNC(=O)COCCOCCNC(=O)CC[C@H](NC(=O)CCCCCCCCCCCCCCCCCCC(=O)O)C(=O)O)NC(=O)[C@H](CCCCN)NC(=O)[C@H](CC(=O)O)NC(=O)[C@H](CC(C)C)NC(=O)[C@H](CC(C)C)NC(=O)[C@@H](NC(=O)[C@H](CO)NC(=O)[C@H](Cc1ccc(O)cc1)NC(=O)[C@H](CC(=O)O)NC(=O)[C@H](CO)NC(=O)[C@@H](NC(=O)[C@H](Cc1ccccc1)NC(=O)[C@@H](NC(=O)CNC(=O)[C@H](CCC(=O)O)NC(=O)C(C)(C)NC(=O)[C@@H](N)Cc1ccc(O)cc1)[C@@H](C)O)[C@@H](C)O)[C@@H](C)CC)[C@@H](C)CC)C(=O)N[C@@H](CCC(=O)O)C(=O)NCC(=O)NCC(=O)N1CCC[C@H]1C(=O)N[C@@H](CO)C(=O)N[C@@H](CO)C(=O)NCC(=O)N[C@@H](C)C(=O)N1CCC[C@H]1C(=O)N1CCC[C@H]1C(=O)N1CCC[C@H]1C(=O)N[C@@H](CO)C(N)=O [Example 261] (H-Y[Aib]EGTFTSDYSILLDKK([AEEA-AEEA-γGlu-C20 diacid])AQEAFIEYLIEGGPSSGAPPPS-NH2)	0.0948	0.16
CC[C@H](C)[C@H](NC(=O)[C@H](CC(C)C)NC(=O)[C@H](Cc1ccc(O)cc1)NC(=O)[C@H](CCC(=O)O)NC(=O)[C@@H](NC(=O)[C@H](Cc1ccccc1)NC(=O)[C@H](C)NC(=O)[C@@H](NC(=O)[C@H](CCC(N)=O)NC(=O)[C@H](C)NC(=O)[C@H](CCCCNC(=O)COCCOCCNC(=O)COCCOCCNC(=O)CC[C@H](NC(=O)CCCCCCCCCCCCCCCCCCC(=O)O)C(=O)O)NC(=O)[C@H](CCCCN)NC(=O)[C@H](CC(=O)O)NC(=O)[C@H](CC(C)C)NC(=O)[C@H](CC(C)C)NC(=O)[C@@H](NC(=O)[C@H](CO)NC(=O)[C@H](Cc1ccc(O)cc1)NC(=O)[C@H](CC(=O)O)NC(=O)[C@H](CO)NC(=O)[C@@H](NC(=O)[C@H](Cc1ccccc1)NC(=O)[C@@H](NC(=O)CNC(=O)[C@H](CCC(=O)O)NC(=O)C(C)(C)NC(=O)[C@@H](N)Cc1ccc(O)cc1)[C@@H](C)O)[C@@H](C)O)[C@@H](C)CC)[C@@H](C)O)[C@@H](C)CC)C(=O)N[C@@H](CCC(=O)O)C(=O)NCC(=O)NCC(=O)N1CCC[C@H]1C(=O)N[C@@H](CO)C(=O)N[C@@H](CO)C(=O)NCC(=O)N[C@@H](C)C(=O)N1CCC[C@H]1C(=O)N1CCC[C@H]1C(=O)N1CCC[C@H]1C(=O)N[C@@H](CO)C(N)=O [Example 262] (H-Y[Aib]EGTFTSDYSILLDKK([AEEA-AEEA-γGlu-C20 diacid])AQTAFIEYLIEGGPSSGAPPPS-NH2)	0.0943	0.13
CC[C@H](C)[C@H](NC(=O)[C@H](CC(C)C)NC(=O)[C@H](Cc1ccc(O)cc1)NC(=O)[C@H](CCC(=O)O)NC(=O)[C@@H](NC(=O)[C@H](Cc1ccccc1)NC(=O)[C@H](C)NC(=O)[C@H](CO)NC(=O)[C@H](CCC(N)=O)NC(=O)[C@H](C)NC(=O)[C@H](CCCCNC(=O)COCCOCCNC(=O)COCCOCCNC(=O)CC[C@H](NC(=O)CCCCCCCCCCCCCCCCCCC(=O)O)C(=O)O)NC(=O)[C@H](CCCCN)NC(=O)[C@H](CC(=O)O)NC(=O)[C@H](CC(C)C)NC(=O)[C@H](CC(C)C)NC(=O)[C@@H](NC(=O)[C@H](CO)NC(=O)[C@H](Cc1ccc(O)cc1)NC(=O)[C@H](CC(=O)O)NC(=O)[C@H](CO)NC(=O)[C@@H](NC(=O)[C@H](Cc1ccccc1)NC(=O)[C@@H](NC(=O)CNC(=O)[C@H](CCC(=O)O)NC(=O)C(C)(C)NC(=O)[C@@H](N)Cc1ccc(O)cc1)[C@@H](C)O)[C@@H](C)O)[C@@H](C)CC)[C@@H](C)CC)C(=O)N[C@@H](CCC(=O)O)C(=O)NCC(=O)NCC(=O)N1CCC[C@H]1C(=O)N[C@@H](CO)C(=O)N[C@@H](CO)C(=O)NCC(=O)N[C@@H](C)C(=O)N1CCC[C@H]1C(=O)N1CCC[C@H]1C(=O)N1CCC[C@H]1C(=O)N[C@@H](CO)C(N)=O [Example 263] (H-Y[Aib]EGTFTSDYSILLDKK([AEEA-AEEA-γGlu-C20 diacid])AQSAFIEYLIEGGPSSGAPPPS-NH2)	0.0785	0.317
CC[C@H](C)[C@H](NC(=O)[C@H](CC(C)C)NC(=O)[C@H](Cc1ccc(O)cc1)NC(=O)[C@H](CCC(=O)O)NC(=O)[C@@H](NC(=O)[C@H](Cc1ccccc1)NC(=O)[C@H](C)NC(=O)[C@@H]1CCCN1C(=O)[C@H](CCC(N)=O)NC(=O)[C@H](C)NC(=O)[C@H](CCCCNC(=O)COCCOCCNC(=O)COCCOCCNC(=O)CC[C@H](NC(=O)CCCCCCCCCCCCCCCCC(=O)O)C(=O)O)NC(=O)[C@H](CCCCN)NC(=O)[C@H](CC(=O)O)NC(=O)[C@H](CC(C)C)NC(=O)[C@H](CC(C)C)NC(=O)[C@@H](NC(=O)[C@H](CO)NC(=O)[C@H](Cc1ccc(O)cc1)NC(=O)[C@H](CC(=O)O)NC(=O)[C@H](CO)NC(=O)[C@@H](NC(=O)[C@H](Cc1ccccc1)NC(=O)[C@@H](NC(=O)CNC(=O)[C@H](CCC(=O)O)NC(=O)C(C)(C)NC(=O)[C@@H](N)Cc1ccc(O)cc1)[C@@H](C)O)[C@@H](C)O)[C@@H](C)CC)[C@@H](C)CC)C(=O)N[C@@H](CCC(=O)O)C(=O)NCC(=O)NCC(=O)N1CCC[C@H]1C(=O)N[C@@H](CO)C(=O)N[C@@H](CO)C(=O)NCC(N)=O [Example 274] (H-Y[Aib]EGTFTSDYSILLDKK([AEEA-AEEA-γGlu-C18 diacid])AQPAFIEYLIEGGPSSG-NH2)	14.5	> 30
CC[C@H](C)[C@H](NC(=O)[C@H](CC(C)C)NC(=O)[C@H](Cc1ccc(O)cc1)NC(=O)[C@H](CCC(=O)O)NC(=O)[C@@H](NC(=O)[C@H](Cc1ccccc1)NC(=O)[C@H](C)NC(=O)[C@@H]1CCCN1C(=O)[C@H](CCC(N)=O)NC(=O)[C@H](C)NC(=O)[C@H](CCCCNC(=O)COCCOCCNC(=O)COCCOCCNC(=O)CC[C@H](NC(=O)CCCCCCCCCCCCCCCCC(=O)O)C(=O)O)NC(=O)[C@H](CCCCN)NC(=O)[C@H](CC(=O)O)NC(=O)[C@H](CC(C)C)NC(=O)[C@H](CC(C)C)NC(=O)[C@@H](NC(=O)[C@H](CO)NC(=O)[C@H](Cc1ccc(O)cc1)NC(=O)[C@H](CC(=O)O)NC(=O)[C@H](CO)NC(=O)[C@@H](NC(=O)[C@H](Cc1ccccc1)NC(=O)[C@@H](NC(=O)CNC(=O)[C@H](CCC(=O)O)NC(=O)C(C)(C)NC(=O)[C@@H](N)Cc1ccc(O)cc1)[C@@H](C)O)[C@@H](C)O)[C@@H](C)CC)[C@@H](C)CC)C(=O)N[C@@H](CCC(=O)O)C(=O)NCC(=O)NCC(N)=O [Example 275] (H-Y[Aib]EGTFTSDYSILLDKK([AEEA-AEEA-γGlu-C18 diacid])AQPAFIEYLIEGG-NH2)	14	> 30
CC[C@H](C)[C@H](NC(=O)[C@H](CC(C)C)NC(=O)[C@H](Cc1ccc(O)cc1)NC(=O)[C@@H](CCC(=O)O)NC(=O)[C@@H](NC(=O)[C@H](Cc1ccccc1)NC(=O)[C@H](CCC(=O)O)NC(=O)C(C)(C)NC(=O)[C@H](CCC(N)=O)NC(=O)[C@H](C)NC(=O)[C@H](CCCCN)NC(=O)[C@H](CCC(=O)O)NC(=O)[C@H](CC(=O)O)NC(=O)[C@H](CC(C)C)NC(=O)[C@](C)(CC(C)C)NC(=O)[C@@H](NC(=O)[C@H](CO)NC(=O)[C@H](Cc1ccc(O)cc1)NC(=O)[C@H](CC(=O)O)NC(=O)[C@H](CO)NC(=O)[C@@H](NC(=O)[C@](C)(Cc1ccccc1F)NC(=O)[C@@H](NC(=O)CNC(=O)[C@H](CCC(=O)O)NC(=O)C(C)(C)NC(=O)[C@@H](N)Cc1ccc(O)cc1)[C@@H](C)O)[C@@H](C)O)[C@@H](C)CC)[C@@H](C)CC)C(=O)N[C@@H](CCC(=O)O)C(=O)NCC(=O)NCC(=O)N1CCC[C@H]1C(=O)N[C@@H](CO)C(=O)N[C@@H](CO)C(=O)NCC(=O)N[C@@H](C)C(=O)N1CCC[C@H]1C(=O)N1CCC[C@H]1C(=O)N1CCC[C@H]1C(=O)N[C@@H](CO)C(N)=O [Example 276] (H-Y[Aib]EGT[αMePhe(2-F)]TSDYSI[αMeL]LDEKAQ[Aib]EFI[dE]YLIEGGPSSGAPPPS-NH2)	0.108	0.0757
CC[C@H](C)[C@H](NC(=O)[C@H](CC(C)C)NC(=O)[C@H](Cc1ccc(O)cc1)NC(=O)[C@@H](CCC(=O)O)NC(=O)[C@@H](NC(=O)[C@H](Cc1ccccc1)NC(=O)[C@H](CCC(=O)O)NC(=O)C(C)(C)NC(=O)[C@H](CCC(N)=O)NC(=O)[C@H](C)NC(=O)[C@H](CCC(N)=O)NC(=O)[C@H](CCC(=O)O)NC(=O)[C@H](CC(=O)O)NC(=O)[C@H](CC(C)C)NC(=O)[C@](C)(CC(C)C)NC(=O)[C@@H](NC(=O)[C@H](CO)NC(=O)[C@H](Cc1ccc(O)cc1)NC(=O)[C@H](CC(=O)O)NC(=O)[C@H](CO)NC(=O)[C@@H](NC(=O)[C@](C)(Cc1ccccc1F)NC(=O)[C@@H](NC(=O)CNC(=O)[C@H](CCC(=O)O)NC(=O)C(C)(C)NC(=O)[C@@H](N)Cc1ccc(O)cc1)[C@@H](C)O)[C@@H](C)O)[C@@H](C)CC)[C@@H](C)CC)C(=O)N[C@@H](CCC(=O)O)C(=O)NCC(=O)NCC(=O)N1CCC[C@H]1C(=O)N[C@@H](CO)C(=O)N[C@@H](CO)C(=O)NCC(=O)N[C@@H](C)C(=O)N1CCC[C@H]1C(=O)N1CCC[C@H]1C(=O)N1CCC[C@H]1C(=O)N[C@@H](CO)C(N)=O [Example 277] (H-Y[Aib]EGT[αMePhe(2-F)]TSDYSI[αMeL]LDEQAQ[Aib]EFI[dE]YLIEGGPSSGAPPPS-NH2; N-terminus assumed)	0.133	0.0554
